Test results reported in a melting point compilation (Tetko et al.; mined from patent text by program, amines drawn as free bases though some values may be those of a salt).

Row | SMILES | melting point [°C]
1 | CCC(C(O)c1ccc(Cl)cc1)n1ncn(-c2ccc(N3CCN(C(=O)NC)CC3)cc2)c1=O (stereo not drawn) | 221
2 | COc1ccccc1[C@@]1(O)[C@H](O)CC(c2ccccc2)(c2ccccc2)[C@@H]2CN(C(=O)Cc3cn(C)c4ccccc34)C[C@@H]21 (racemic) | 240
3 | Cc1cc(-c2ccc(O)cc2)ccc1C=O | 161 to 162
4 | COc1ccc(C=CC(=O)O)cc1-c1cc2c(cc1OCCCCCCCC(=O)OC(C)(C)C)C(C)(C)CCC2(C)C | 126 to 128
5 | O=C(O)C(O)C(O)C(=O)NCc1ccc2c(c1)-c1n[nH]c(=O)c3cccc(c13)O2 (stereo not drawn) | 181 to 185
6 | Clc1cc(-c2ccccc2)nc2sccc12 | 83 to 85
7 | COC(=N)N1CCC(c2nn(C)c3cc(F)ccc23)CC1 | 132 to 135
8 | Cc1nc2ccc3c(c2s1)C(=CC#N)CC3 | 194 to 195
9 | Cc1cc(C=O)cc(C)c1N | 75 to 76
10 | CCCc1cc(Cl)c2oc(Cc3ccc(OC)cc3)c(C)c2c1OC(C)=O | 119 to 120
11 | O=C(CNC(=O)c1ccc([N+](=O)[O-])c(I(=O)=O)c1)OCC(Cl)(Cl)Cl | 128 to 130
12 | Cc1ccc(-c2[nH]c(-c3cccc4ccccc34)nc2C(=O)Nc2nccs2)cc1 | 228 to 229
13 | O=C1N(CCCCN2CCN(c3n[nH]c4cc(F)ccc34)CC2)CSC12CCCC2 | 132 to 134
14 | CCN(CC)c1cc(C)c2c(c1)C(=O)OC2=O | 128
15 | O=Cc1ccc(CCBr)cc1 | 49 to 52
16 | CCOC(=O)C1CCc2cc([N+](=O)[O-])ccc2O1 (stereo not drawn) | 80.8
17 | Cc1ccc2c(c1)-c1nn(-c3ccc(Cl)cc3)c(=O)cc1CS2 | 200 to 206
18 | COC(=O)c1ccc(CN2CCc3ccc(S(=O)(=O)Nc4cccc(Cl)c4)cc3C2)o1 | 167 to 168
19 | CCNC(=O)Nc1ccc(C#Cc2ccc(N3CC4CCC(C3)N4C)nn2)cc1 | 269
20 | COCCOc1ccc(CCCNS(=O)(=O)c2ccc(Cl)cc2)c(Oc2ncc(C(F)(F)F)cc2Cl)c1 | 111 to 113
21 | CCCn1c(COCC)nc2c(N)nc3ccc(OCc4ccccc4)cc3c21 | 152 to 154
22 | COC(=O)c1ccc2nc3c(C)sc(C)c3c(=O)n2c1 | 209 to 210
23 | COC(=O)C(O)NC(=O)OC(C)(C)C (stereo not drawn) | 96 to 97
24 | CCc1c(CCC(=O)O)c[nH]c1C=O | 128 to 134
25 | COC(=O)[C@H](Cc1ccccc1)NC(=O)CCC#N | 71 to 72

Row | SMILES | melting point [°C]
26 | CN1CCCCC1Cn1nc(-c2c(-c3ccccc3)nn3ccccc23)ccc1=O (stereo not drawn) | 154 to 155
27 | CCCC(NC(=O)CN1C(=O)N(c2ccc(C)cc2)C2(CCCCC2)C1=O)c1ccccc1 (stereo not drawn) | 208 to 210
28 | CC(C)(C)C(=O)OCc1nc(-c2cc(C(C)(C)C)c(O)c(C(C)(C)C)c2)cs1 | 115 to 116
29 | O=C(NCc1ccc(Cl)cc1)c1cn2c(CO)cc3cc(CN4CCOCC4)cc(c1=O)c32 | 210 to 212
30 | COc1cc2c(cc1OC)CN(CCNc1ccc(NC(=O)c3cccc4c(=O)c5cccc(OC)c5[nH]c34)cc1)CC2 | 228 to 234
31 | FC(F)(F)Cn1cc(C#Cc2cccc(OCC3CC3)c2)cn1 | 63 to 65
32 | COC(=O)c1ncc(C)cc1S(N)(=O)=O | 86 to 88
33 | O=C(N[C@H](Cc1ccc(C(F)(F)F)cc1)[C@@H](O)c1ccc(F)cc1)c1ccc(F)cc1 (racemic) | 202 to 203
34 | CCN(Cc1cc(C(C)=O)ccc1NC(C)=O)C1CCCCC1 | 98 to 100
35 | O=c1[nH]c(=O)n(C2CC(F)C(CO)O2)cc1C(Br)=CI (stereo not drawn) | 107
36 | CN1CCN(C2=Nc3cc(Cl)c(Cl)cc3Nc3nn(C)nc32)CC1 | 218
37 | O=S1Cc2ccccc2-c2ccccc21 (stereo not drawn) | 97 to 100
38 | COc1ccc(C=C(CSC(C)=O)C(=O)NCCC(=O)OCc2ccccc2)cc1 | 96
39 | Cc1nc(NC(=O)c2ccc(S(C)(=O)=O)cc2)sc1C(=O)NCc1ccccc1 | 262 to 265
40 | CCOC(=O)CC(=O)c1cc(F)c(S(=O)(=O)c2ccccc2)nc1Nc1ccc(F)cc1F | 140 to 141
41 | COC(=O)C1Cc2cncn2C(=O)N1 (stereo not drawn) | 159 to 164
42 | CCNCC1(C)CN(c2c(F)cc3c(=O)c(C(=O)O)cn(C4CC4)c3c2F)C1 | 250 to 255
43 | O=[N+]([O-])c1ccccc1Nc1nc(-c2ccccc2)cs1 | 114 to 116
44 | CC1=CCC2C(=O)N(c3ccccc3)C(=O)C2C1 (stereo not drawn) | 92 to 93
45 | CCCCN(Cc1ccc(-c2ccccc2-c2nnn[nH]2)cc1)c1ncn(C)c1C(=O)OCC | 203 to 204
46 | NC(=O)C1CCCN1c1nc(-c2ccccc2)nc2[nH]c(CN3CCC(O)(c4ccccc4)CC3)cc12 (stereo not drawn) | 234 to 235
47 | C#CCSc1ccc([N+](=O)[O-])cn1 | 98 to 99.5
48 | COc1cc(O)c2c(=O)c(OC)c(-c3ccc(OC(=O)C(O)C(O)C(=O)O)c(OC)c3)oc2c1 (stereo not drawn) | 179 to 180
49 | CN(c1cccc2cc(C3=NCC(CN4CCS(=O)CC4)S3)[nH]c12)S(=O)(=O)c1nccn1C (stereo not drawn) | 161 to 162
50 | Cc1ccc(C(=O)c2noc(CC#N)n2)cc1 | 76 to 78

Row | SMILES | melting point [°C]
51 | CCOC(=O)Cc1cc(-c2ccccc2)nc2ccccc12 | 180
52 | CCNC(=O)c1cc(NCn2nnc3ccccc32)ccc1[Si](C)(C)C | 207 to 208
53 | CC(=O)NC1CCc2[nH]c3ccccc3c2C1 (stereo not drawn) | 170
54 | CCNC(=O)[C@@H]1C[C@]2(NC(=O)N(CCCCl)C2=O)c2cc(F)ccc2O1 | 95 to 97
55 | COc1cc2ncc(C#N)c(Nc3cc(Cl)ccc3O)c2cc1OC | > 250
56 | CSC(=N[N+](=O)[O-])NCc1ccccc1 | 77 to 80
57 | Cc1nc2c3c(c(C(=O)N(C)C)cc2[nH]1)CC[C@@H](c1ccccc1C)O3 | 219
58 | CCOC(=O)c1cn(C2CC2)c2c(F)c(NCC(O)COC(=O)c3ccccc3)c(F)cc2c1=O (stereo not drawn) | 134 to 136
59 | C[C@]12CC[C@H]3[C@@H](CCC4=CC(=O)CC[C@@]43COC(=O)C34CC5CC(CC(C5)C3)C4)[C@@H]1CCC2=O | 161 to 163
60 | CC1=C(CCN(O)C(N)=O)c2cc(F)ccc2/C1=C\c1ccc(S(C)(=O)=O)cc1 | 187
61 | NC(=O)c1cc2cc(N3CCN(Cc4ccccc4)CC3)ccc2o1 | 206 to 208
62 | CN(C)C(=O)NC1CCCc2sccc21 (stereo not drawn) | 117 to 120
63 | CCCCc1sc2ccccc2c1C(=O)c1ccc(NS(=O)(=O)c2ccc(C)cc2)cc1 | 128
64 | OC(Cn1cncn1)(c1ccc(F)cc1)c1ccccc1Cl (stereo not drawn) | 115 to 116
65 | N/C(=C1/Sc2ccccc2C1=O)c1ccccc1Cl | 167 to 168
66 | CCCCCCNC(=O)C1=C(C(=O)Nc2cc(OC3CCCC3)c(Cl)cc2F)CCCC1 | 128 to 130
67 | COc1cccc(-c2cnc3c(-c4cc(-c5ccccc5)cs4)cnn3c2O)c1 | > 300
68 | CCN(CCCCCCCCN(CC)S(=O)(=O)c1ccc(C)cc1)S(=O)(=O)c1ccc(C)cc1 | 112 to 113
69 | COc1cc2c(cc1OC(C)C)-c1c(Br)c3c(n1CC2)C(=O)N(C(C)(C)C)CCOC3 | 160 to 162
70 | N#CC(c1ccccc1)c1ccc([N+](=O)[O-])cc1C(F)(F)F (stereo not drawn) | 70.4
71 | COc1ccccc1N1CCN(CCCNC(=O)c2cccc3c(=O)c(C)c(-c4cccnc4)oc23)CC1 | 134 to 137
72 | O=C(CCOc1ccc(Cl)cc1)NCCCn1ccnc1 | 114 to 116
73 | NCc1ccc(C(=O)Nc2ccc(-n3nc(C(F)(F)F)cc3C(F)(F)F)cc2)c(Cl)c1 | 90 to 93
74 | O=C1CCC(c2ccc(C(F)(F)F)cc2)=NN1 | 177 to 178
75 | Cc1nc2c3c(c(C(=O)N(C)CC(C)O)cc2n1C)CCC1(Cc2ccccc2C1)N3 (stereo not drawn) | 258 to 259

Row | SMILES | melting point [°C]
76 | COC(=O)NC(Cc1ccccc1)C1CC(Cc2ccccc2)=NO1 (stereo not drawn) | 87 to 88.5
77 | CC1(CCc2ccc(O)c(C(C)(C)C)c2)NC(=O)NC1=O (stereo not drawn) | 246
78 | CCOCc1nc2c(N)nc3cc(-c4ccccc4)ccc3c2n1CCCN1CCCC1=O | 199 to 203
79 | O=C(O)CCc1cc2cc(Cl)ccc2n1S(=O)(=O)c1ccc(Cl)cc1 | 158 to 160
80 | N#Cc1ccc(Nc2nc(Oc3c(Br)cc(CO)cc3Br)ccc2[N+](=O)[O-])cc1 | 209 to 213
81 | CC(c1ccc(-c2ccccc2)c(F)c1)c1cc(N)on1 (stereo not drawn) | 122 to 123
82 | Cc1cc2c(cc1Br)cc1n2[C@H](C)CN(C(=O)OC(C)(C)C)C1 | 113 to 114
83 | COc1ccc(Sc2nc(-c3ccccc3)cnc2N)cc1 | 116 to 118
84 | CC(=O)NCC(=O)c1cc(OC(C)=O)c(OC(C)=O)c([N+](=O)[O-])c1 | 121 to 124
85 | CCn1cc(C(=O)O)c(=O)c2cc(F)c(N3CC(C)(N)C3)c(F)c21 | 293 to 296
86 | CN1C(=S)N(c2ccc(C#N)c(C(F)(F)F)c2)C(=O)C12CCCC2 | 162 to 163
87 | Cc1cc([N+](=O)[O-])c(O)c([N+](=O)[O-])c1C | 120 to 122
88 | Cc1ncccc1Oc1ccc(N)cn1 | 95 to 100
89 | C#CCOc1cc(C(=O)O)n(-c2ncc(Cl)cc2Cl)n1 | 151 to 157
90 | COc1ccc(CN2CCN(C3=NC4(C=CC(=O)C=C4)C(c4ccc(OC)cc4)=C3)CC2)cc1 | 142
91 | CCC(C)(CCc1ccccc1)NC(=O)n1nc(C)n(N)c1=O (stereo not drawn) | 78
92 | COC(=O)CCc1ccc(OCCN(C)c2nc3ccccc3o2)cc1 | 51 to 52
93 | O=C(Nc1cccc(F)c1)C12CC3CC(CC(C3)C1)C2 | 174 to 177
94 | O=c1c2ccccc2cc(Cl)c2ccccc12 | 118 to 121
95 | CCOc1nc(C(=O)O)ccc1CN | 226 to 228
96 | COC(=O)CCCCCCCCCCCCCCCCCCCCCc1c(C)cc(OC)c(OC)c1O | 71 to 72.5
97 | COc1ccc(C(=O)Nc2ccc(F)cc2)cc1NS(=O)(=O)c1cccc(C#N)c1 | 221 to 225
98 | CCOC(=O)CN1CC(=O)N(C)c2ccc(N)cc2C1=O | 118 to 119
